# According to PMC5011342, “A high throughput drug screening assay to identify compounds that promote oligodendrocyte differentiation using acutely dissociated and purified oligodendrocyte precursor cells” (BMC Research Notes, 2016):
# Read-outs that look alike come from different tables or passages of the source.
# Legend:
# [1] = system: acutely dissociated and purified rat OPCs; experiment: Acute OL differentiation assay (MBP expression/cell, immunofluorescent image quantification); assay type: cell-based; details: for activation at 2 µM / activation at 10 µM / activation at 0.4 µM: sheet "All OLga data"
# Outline: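 Oligodendrocyte precursor cells were enriched from P6-P7 Sprague–Dawley rat brains by immunopanning (RAN-2 and GalC depletion, O4 selection), plated at 5000 cells/well in serum-free, mitogen-free differentiation media on PDL/laminin 96-well view plates, centrifuged at 200×g, and pre-incubated 1–2 h before test compounds were added in quadruplicate. On DIV4, cells were fixed, stained for MBP and DAPI, imaged automatically, and MBP expression per cell was quantified.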
# expanded OPCs = experiment: cells; details: for viability at 0.1 µM / viability at 1 µM / viability at 10 µM: Rattus norvegicus, 72 h; for 0.1 µM (% DMSO) / 1 µM (% DMSO) / 10 µM (% DMSO): alamarBlue viability of expanded OPCs, relative to DMSO control; for 0.1 µM (% DMSO): compound at 0.1 µM; for 1 µM (% DMSO): compound at 1 µM; for 10 µM (% DMSO): compound at 10 µM
# Outline: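 Expanded OPCs seeded at 10,000 cells/well in differentiation media, then exposed to NCC library compounds at 10, 1 and 0.1 µM (quadruplicate, 0.1% DMSO) for three days. Viability read as alamarBlue fluorescence (560/590 nm) after 4 h at 37 °C; tunicamycin 5 ng/ml served as toxicity control.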
# [2] = Rattus norvegicus, test compound at 2 uM, NCC library screen, relative to quetiapine, read-out: 2 uM (% Quet)
# [3] = Rattus norvegicus, test compound at 10 uM, NCC library screen, relative to quetiapine, read-out: 10 uM (% Quet)
# [4] = read-out: 0.1 µM (% DMSO), alamarBlue viability, NCC library compound at 0.1 µM, sheet "All Tox data"
# [5] = read-out: 1 µM (% DMSO), alamarBlue viability, NCC library compound at 1 µM, sheet "All Tox data"
# [6] = read-out: 10 µM (% DMSO), alamarBlue viability, NCC library compound at 10 µM, sheet "All Tox data"
# [7] = Rattus norvegicus, 0.4 uM test compound, relative to quetiapine, read-out: OL differentiation, 0.4 uM (% Quet)
# [8] = Rattus norvegicus, 2 uM test compound, relative to quetiapine, read-out: OL differentiation, 2 uM (% Quet)
# [9] = read-out: 0.1 µM (% DMSO), alamarBlue viability of expanded OPCs, compound at 0.1 µM, sheet All Tox data
# [10] = read-out: 1 µM (% DMSO), alamarBlue viability of expanded OPCs, compound at 1 µM, sheet All Tox data
# [11] = read-out: 10 µM (% DMSO), alamarBlue viability of expanded OPCs, compound at 10 µM, sheet All Tox data
# [12] = Rattus norvegicus, 10 uM test compound, relative to quetiapine, read-out: OL differentiation, 10 uM (% Quet)
# [13] = Rattus norvegicus, test compound at 2 uM, MBP expression relative to quetiapine, NCC library screen, read-out: 2 uM (% Quet)
# [14] = Rattus norvegicus, test compound at 10 uM, MBP expression relative to quetiapine, NCC library screen, read-out: 10 uM (% Quet)
# [15] = Rattus norvegicus, test compound at 0.4 uM, MBP expression relative to quetiapine, NCC library screen, read-out: 0.4 uM (% Quet)
SMILES,"activation at 2 µM [1, 8]",viability at 0.1 µM (expanded OPCs; [9]),viability at 1 µM (expanded OPCs; [10]),viability at 10 µM (expanded OPCs; [11]),0.1 µM (% DMSO) (expanded OPCs),1 µM (% DMSO) (expanded OPCs),10 µM (% DMSO) (expanded OPCs),also measured
CC1Cc2ccccc2N1NC(=O)c1ccc(Cl)c(S(N)(=O)=O)c1 (stereo not shown) [Indapamide],,,,,,,,"activation at 2 µM [1, 2]: -10%; activation at 10 µM [1, 3]: -12.4%; viability at 0.1 µM (expanded OPCs; [4]): 95.2%; viability at 1 µM (expanded OPCs; [5]): 92.1%; viability at 10 µM (expanded OPCs; [6]): 101%"
CSc1nc2cc(Cl)c(Oc3cccc(Cl)c3Cl)cc2[nH]1 [Triclabendazole],-46.6%,96.9%,131%,11.1%,,,,"activation at 0.4 µM [1, 7]: -13.1%"
CCc1nn(CCCN2CCN(c3cccc(Cl)c3)CC2)c(=O)n1CCOc1ccccc1 [Nefazodone],0.4%,99.6%,111%,42.8%,,,,"activation at 0.4 µM [1, 7]: -5.2%"
CC12CC3CC(C)(C1)CC(N)(C3)C2 [Memantine],-9.2%,97.8%,93.2%,59.7%,93.3 % DMSO,84.1 % DMSO,67.0 % DMSO,"activation at 10 µM [1, 12]: -28.3%; activation at 2 µM [1, 13]: -64.4%; activation at 10 µM [1, 14]: -100%"
CCN(CC)CCOc1ccc(C(=C(Cl)c2ccccc2)c2ccccc2)cc1 [Clomiphene],,,,,172.3 % DMSO,59.8 % DMSO,8.1 % DMSO,"activation at 0.4 µM [1, 15]: 51.5%"
CC(C(=O)O)c1cccc(C(=O)c2ccccc2)c1 (stereo not shown) [Ketoprofen],,,,,90.4 % DMSO,89.7 % DMSO,95.0 % DMSO,"activation at 2 µM [1, 2]: 0.75%; activation at 10 µM [1, 3]: -29.2%"
NC(=O)c1ncn([C@@H]2O[C@H](CO)[C@@H](O)[C@H]2O)n1 [Ribavirin],,,,,96.2 % DMSO,92.8 % DMSO,76.9 % DMSO,"activation at 0.4 µM [1, 15]: 8.6%; activation at 2 µM [1, 13]: 6.7%"
"CC(COc1ccccc1Cc1ccccc1)N1CCCCC1 (stereo not shown) [Benproperine, reference compound]",99.4%,105%,123%,20.9%,,,,"activation at 0.4 µM [1, 7]: 82.1%; EC50 ([1]; Rattus norvegicus, average EC50 for induction of OL differentiation from independent biological replicates, eight concentrations): 800 nM; hit in OL differentiation assay, MRF-TMC ([1]; ● = confirmed hit in this paper's assay): ●"
Cc1onc(-c2c(Cl)cccc2Cl)c1C(=O)N[C@@H]1C(=O)N2[C@@H]1SC(C)(C)[C@@H]2C(=O)O [Dicloxacillin],,,,,93.5 % DMSO,91.4 % DMSO,76.5 % DMSO,"activation at 2 µM [1, 13]: -0.7%; activation at 10 µM [1, 14]: -16.9%"
C[C@]12C[C@H](O)[C@H]3[C@@H](CCC4=CC(=O)CC[C@@]43C)[C@@H]1CC[C@@H]2C(=O)CO [Corticosterone],,,,,,,,"activation at 2 µM [1, 2]: 20.1%; activation at 10 µM [1, 3]: 17.1%; viability at 0.1 µM (expanded OPCs; [4]): 105%; viability at 1 µM (expanded OPCs; [5]): 108%; viability at 10 µM (expanded OPCs; [6]): 102%"
C=CC[C@@H]1/C=C(\C)C[C@H](C)C[C@H](OC)[C@H]2O[C@@](O)(C(=O)C(=O)N3CCCC[C@H]3C(=O)O[C@H](/C(C)=C/[C@@H]3CC[C@@H](O)[C@H](OC)C3)[C@H](C)[C@@H](O)CC1=O)[C@H](C)C[C@@H]2OC [Tacrolimus],-39.9%,94.6%,102%,109%,,,,"activation at 10 µM [1, 12]: -53.9%"
COc1cc(/C=C/c2ccc(O)cc2)cc(OC)c1 [Pterostilbene],-7.7%,101%,62.5%,27.3%,,,,"activation at 0.4 µM [1, 7]: -5.7%"
CC(=O)NCCCCCCNC(C)=O [Hexamethylene bisacetamide],4.1%,80.5%,83.1%,87.3%,,,,"activation at 10 µM [1, 12]: 12.8%"
COc1c2occc2cc2ccc(=O)oc12 [Methoxsalen],,,,,88.8 % DMSO,90.5 % DMSO,85.4 % DMSO,"activation at 2 µM [1, 13]: -13.9%; activation at 10 µM [1, 14]: -33.3%"
